What is called pIC50 is the IC50 on a negative log10 scale, so that one unit is a factor of ten.

Data on 30 compounds can be found in US20250009742A1 (priority 2021, published 2025).

pIC50: −log10 of the molar value.

For one assay, the system named is intracellular HBV DNA. The assay is described as follows: Real-time PCR for intracellular HBV DNA in HepAD38 cells. The following applies: 65 hours treatment, read-out: IC50. Format: cell-based. As for the experimental part: HepAD38 cells were cultured in DMEM medium (Welgene) supplemented with 200 unit/mL penicillin, 200 μg/mL streptomycin, and 10% FBS. During maintenance and passage, the cells were cultured together with 0.4 μg/mL tetracycline. Two days before the treatment with compounds for inducing HBV replication was started, the medium was replaced with a tetracycline-free complete growth medium. […]
HepAD38 cells were treated with a compound for 65 hours and then recovered, and intracellular HBV DNA was extracted therefrom according to the protocol in the DNeasy Blood & Tissue Kit (Qiagen). The primers and probes used to quantify HBV DNA were 5′-[…]-3′, 5′-[…]-3′, and 5′-/56-FAM/TGT CCT GGT/ZEN/TAT CGC TGG ATG TGT CT/3IABkFQ/-3′. The HBV DNA was amplified by real-time PCR assay using LightCycler 480 (Roche) (J. Virol., 2018, 92(16):e00339-18). All of the processes were confirmed in duplicate.
(Quantitative PCR measures a nucleic acid by following its amplification.)
Regarding “3-(6-fluoropyridin-3-yl)-1-(2-methoxypyrimidin-5-yl)-1-((5-(trifluoromethyl)-1H-pyrazol-3-yl)methyl)urea [Example 184]”, the pIC50 was 6.60.

Still in this assay, the particulars now being: Hepatitis B virus, HePAD38, 65 h, 65 hours treatment.
`COc1ncc(N(Cc2cc(C(F)(F)F)[nH]n2)C(=O)NC23CC(C2)C3)cn1` [Example 1, 3-(bicyclo[1.1.1]pentan-1-yl)-1-(2-methoxypyrimidin-5-yl)-1-((5-(trifluoromethyl)-1H-pyrazol-3-yl)methyl)urea]: the pIC50 was below 5.96.
Compound `COc1ncc(N(Cc2cc(C(F)(F)F)[nH]n2)C(=O)Nc2cncnc2)cn1` [Example 2, 1-(2-methoxypyrimidin-5-yl)-3-(pyrimidin-5-yl)-1-((5-(trifluoromethyl)-1H-pyrazol-3-yl)methyl)urea] gave a negative-log IC50 (pIC50) below 5.96.
Same read-out and setting: the value for `COc1ncc(N(Cc2cc(C(F)(F)F)[nH]n2)C(=O)Nc2ccnc(Br)c2F)cn1` [Example 4, 3-(2-bromo-3-fluoropyridin-4-yl)-1-(2-methoxypyrimidin-5-yl)-1-((5-(trifluoromethyl)-1H-pyrazol-3-yl)methyl)urea] was 7.68; that for `COc1ncc(N(Cc2cc(C(F)(F)F)[nH]n2)C(=O)Nc2cccc(Cl)n2)cn1` [Example 5, 3-(6-chloropyridin-2-yl)-1-(2-methoxypyrimidin-5-yl)-1-((5-(trifluoromethyl)-1H-pyrazol-3-yl)methyl)urea] was 6.42; that for `COc1ncc(N(Cc2cc(C(F)(F)F)[nH]n2)C(=O)Nc2ccc(Cl)c(C#N)n2)cn1` [Example 8, 3-(5-chloro-6-cyanopyridin-2-yl)-1-(2-methoxypyrimidin-5-yl)-1-((5-(trifluoromethyl)-1H-pyrazol-3-yl)methyl)urea] was below 5.96.
`COc1ncc(N(Cc2cc(C(F)(F)F)[nH]n2)C(=O)Nc2cc(F)c(F)c(Cl)c2)cn1` [Example 11, 3-(3-chloro-4,5-difluorophenyl)-1-(2-methoxypyrimidin-5-yl)-1-((5-(trifluoromethyl)-1H-pyrazol-3-yl)methyl)urea] gave a pIC50 of 8.00.
Still for that read-out and setting: the value for `COc1ncc(N(Cc2cc(C(F)F)[nH]n2)C(=O)Nc2cc(F)c(F)c(Cl)c2)cn1` [Example 12, 3-(3-chloro-4,5-difluorophenyl)-1-((5-(difluoromethyl)-1H-pyrazol-3-yl)methyl)-1-(2-methoxypyrimidin-5-yl)urea] was 7.35.
The same measure, in the same setting: the value for `CC(=O)c1cc(N(Cc2n[nH]c3c2CCOC3)C(=O)Nc2ccc(F)c(Cl)c2)ccn1` [Example 22, 1-(2-acetylpyridin-4-yl)-3-(3-chloro-4-fluorophenyl)-1-((1,4,5,7-tetrahydropyrano[3,4-c]pyrazol-3-yl)methyl)urea] was below 5.96; that for `CC12CC(N(Cc3cc(C(F)(F)F)[nH]n3)C(=O)Nc3ccc(F)c(Cl)c3)(C1)C2` [Example 27, 3-(3-chloro-4-fluorophenyl)-1-(3-methylbicyclo[1.1.1]pentan-1-yl)-1-((5-(trifluoromethyl)-1H-pyrazol-3-yl)methyl)urea] was 6.80.
For the compound `COc1ncc(N(Cc2cc(C(F)F)[nH]n2)C(=O)Nc2ccc(F)c(Cl)c2)cn1` [Example 84, 3-(3-chloro-4-fluorophenyl)-1-((5-(difluoromethyl)-1H-pyrazol-3-yl)methyl)-1-(2-methoxypyrimidin-5-yl)urea], the pIC50 was 7.77.
`CCOCCc1c(CN(C(=O)Nc2ccc(F)c(Cl)c2)c2ccc(OC)nc2)n[nH]c1C(F)(F)F` [Example 85, 3-(3-chloro-4-fluorophenyl)-1-((4-(2-ethoxyethyl)-5-(trifluoromethyl)-1H-pyrazol-3-yl)methyl)-1-(6-methoxypyridin-3-yl)urea] had a pIC50 of 6.64.
On the same count and under the same terms, the value for `COc1ccc(N(Cc2n[nH]c(C(F)(F)F)c2CCO)C(=O)Nc2ccc(F)c(Cl)c2)cn1` [Example 86, 3-(3-chloro-4-fluorophenyl)-1-((4-(2-hydroxyethyl)-5-(trifluoromethyl)-1H-pyrazol-3-yl)methyl)-1-(6-methoxypyridin-3-yl)urea] was 7.80.
`COc1ccc(N(Cc2n[nH]c(C(F)(F)F)c2CC2OC(C)(C)C(C)(C)O2)C(=O)Nc2ccc(F)c(Cl)c2)cn1` [Example 87, 3-(3-chloro-4-fluorophenyl)-1-(6-methoxypyridin-3-yl)-1-((4-((4,4,5,5-tetramethyl-1,3-dioxolan-2-yl)methyl)-5-(trifluoromethyl)-1H-pyrazol-3-yl)methyl)urea] showed a pIC50 of 7.47.
On the same count and under the same terms, the value for `COc1ccc(N(Cc2n[nH]c(C(F)F)c2OC)C(=O)Nc2ccc(F)c(Cl)c2)cn1` [Example 100, 3-(3-chloro-4-fluorophenyl)-1-((5-(difluoromethyl)-4-methoxy-1H-pyrazol-3-yl)methyl)-1-(6-methoxypyridin-3-yl)urea] was 7.44; that for `COc1ncc(N(Cc2n[nH]c(C(F)(F)F)c2CC(C)(C)O)C(=O)Nc2ccc(F)c(Cl)c2)cn1` [Example 101, 3-(3-chloro-4-fluorophenyl)-1-((4-(2-hydroxy-2-methylpropyl)-5-(trifluoromethyl)-1H-pyrazol-3-yl)methyl)-1-(2-methoxypyrimidin-5-yl)urea] was below 5.96; that for `COc1ncc(N(Cc2n[nH]c(C(F)F)c2CC(C)(C)O)C(=O)Nc2ccc(F)c(Cl)c2)cn1` [Example 103, 3-(3-chloro-4-fluorophenyl)-1-((5-(difluoromethyl)-4-(2-hydroxy-2-methylpropyl)-1H-pyrazol-3-yl)methyl)-1-(2-methoxypyrimidin-5-yl)urea] was below 5.96.
The same measure, in the same setting: the value for `COc1ncc(N(Cc2cc(C#N)[nH]n2)C(=O)Nc2ccc(F)c(Cl)c2)cn1` [Example 104, 3-(3-chloro-4-fluorophenyl)-1-((5-cyano-1H-pyrazol-3-yl)methyl)-1-(2-methoxypyrimidin-5-yl)urea] was 7.57; that for `COc1ncc(N(Cc2cc(C(F)(F)F)[nH]n2)C(=O)Nc2ccc(F)c(Cl)n2)cn1` [Example 106, 3-(6-chloro-5-fluoropyridin-2-yl)-1-(2-methoxypyrimidin-5-yl)-1-((5-(trifluoromethyl)-1H-pyrazol-3-yl)methyl)urea] was 6.92.
Same read-out and setting: the result for `COc1ncc(N(Cc2cc(C(F)(F)F)[nH]n2)C(=O)Nc2cnc(F)c(Cl)c2)cn1` [Example 107, 3-(5-chloro-6-fluoropyridin-3-yl)-1-(2-methoxypyrimidin-5-yl)-1-((5-(trifluoromethyl)-1H-pyrazol-3-yl)methyl)urea] reads 7.21; that for `N#Cc1cc(N(Cc2n[nH]c3c2COCC3)C(=O)Nc2ccc(F)c(Cl)c2)ccn1` [Example 123, 3-(3-chloro-4-fluorophenyl)-1-(2-cyanopyridin-4-yl)-1-((1,4,6,7-tetrahydropyrano[4,3-c]pyrazol-3-yl)methyl)urea], 6.60.
`N#Cc1ccc(N(Cc2n[nH]c3c2CCCO3)C(=O)Nc2ccc(F)c(Cl)c2)cn1` [Example 124, 3-(3-chloro-4-fluorophenyl)-1-(6-cyanopyridin-3-yl)-1-((1,4,5,6-tetrahydropyrano[2,3-c]pyrazol-3-yl)methyl)urea] gave a pIC50 of 7.33.
Regarding `N#Cc1ccc(N(Cc2cc(C(F)F)[nH]n2)C(=O)Nc2ccc(F)c(Cl)c2)cn1` [Example 126, 3-(3-chloro-4-fluorophenyl)-1-(6-cyanopyridin-3-yl)-1-((5-(difluoromethyl)-1H-pyrazol-3-yl)methyl)urea], the pIC50 was 6.27.
Same read-out and setting: the result for `O=C(Nc1ccc(F)c(Cl)c1)N(Cc1cc(C(F)(F)F)[nH]n1)C12CC(C1)C2` [Example 137, 1-(bicyclo[1.1.1]pentan-1-yl)-3-(3-chloro-4-fluorophenyl)-1-((5-(trifluoromethyl)-1H-pyrazol-3-yl)methyl)urea] reads 6.43; that for `COc1ncc(N(Cc2cc(C(F)F)[nH]n2)C(=O)Nc2cc(C)c(F)c(Cl)c2)cn1` [Example 139, 3-(3-chloro-4-fluoro-5-methylphenyl)-1-((5-(difluoromethyl)-1H-pyrazol-3-yl)methyl)-1-(2-methoxypyrimidin-5-yl)urea], 7.40; that for `COc1ncc(N(Cc2cc(C(F)(F)F)[nH]n2)C(=O)Nc2cc(C)c(F)c(Cl)c2)cn1` [Example 140, 3-(3-chloro-4-fluoro-5-methylphenyl)-1-(2-methoxypyrimidin-5-yl)-1-((5-(trifluoromethyl)-1H-pyrazol-3-yl)methyl)urea], 7.43.
On the same count and under the same terms, the value for `COc1ncc(N(Cc2cc(C(F)(F)F)[nH]n2)C(=O)Nc2nc(Cl)cc(C)c2F)cn1` [Example 141, 3-(6-chloro-3-fluoro-4-methylpyridin-2-yl)-1-(2-methoxypyrimidin-5-yl)-1-((5-(trifluoromethyl)-1H-pyrazol-3-yl)methyl)urea] was 6.38; that for `COc1ncc(N(Cc2cc(C(F)(F)F)[nH]n2)C(=O)Nc2cnc(Cl)nc2)cn1` [Example 143, 3-(2-chloropyrimidin-5-yl)-1-(2-methoxypyrimidin-5-yl)-1-((5-(trifluoromethyl)-1H-pyrazol-3-yl)methyl)urea] was below 5.96.
On the same count and under the same terms, the result for `COc1ncc(N(Cc2cc(C(F)F)[nH]n2)C(=O)Nc2cccc(C#N)c2)cn1` [Example 147, 3-(3-cyanophenyl)-1-((5-(difluoromethyl)-1H-pyrazol-3-yl)methyl)-1-(2-methoxypyrimidin-5-yl)urea] reads 7.10; that for `COc1ncc(N(Cc2cc(C(F)(F)F)[nH]n2)C(=O)Nc2cc(F)c(F)c(C#N)c2)cn1` [Example 149, 3-(3-cyano-4,5-difluorophenyl)-1-(2-methoxypyrimidin-5-yl)-1-((5-(trifluoromethyl)-1H-pyrazol-3-yl)methyl)urea], 6.22.
